Laboratory results: patent US6514692B2, “Method for treatment of immunodeficiency virus infection” (priority 1996, dated 2003)
Values joined by “and” are separate entries in the source; they are usually repeats but may differ in a detail not shown here. Identical values can stand only once. Like-named read-outs stand apart in the source and are kept apart here.

Legend:
[1] = tested on: ME180 cells; assay: toxicity (XTT) in transmission inhibition assay; conditions: for TOXICITY VALUES (XTT), single samples: samples 1-3; for TC50 (concentration at which 50% of cells are eliminated): interpolation from % CC
Excerpt: (§1) ME180 cells, a cervical epithelial cell line, were obtained from the American Type Culture Collection. These cells were thawed from liquid nitrogen and grown in RPMI 1640 medium supplemented with 10t fetal bovine serum, glutamine and antibiotics. The cells were adherent and were trypsinized (0.5% trypsin in HBSS) to remove them from the flask for passaging and use in assays. For use in the microtiter transmission inhibition assay, ME180 cells were trypsinized, washed and seeded in 96-well flat bottom microtiter plates (COSTAR) at a density of 5×10^3 cells per well. The cells were incubated at 37° C. for 24 hours prior to the tart of the assay. H9 cells chronically infected with he SK1 isolate of HIV-1 were treated with 200 μg/ml mitomycin C for 60 minutes at 37° C. After treatment the cells were washed three times with tissue culture medium. The chronically infected lymphocytes were added to each well at a density of 2×10^4 cells per well. The concentration of mitomycin C used in the treatment of the lymphocytes was chosen to allow lymphocyte survival for the period of time required to transmit virus to the uninfected ME180 cells, but to die prior to the time of assay so as not to contribute to the p24 signal used as the endpoint (see below). In the transmission assay the lytic peptides D4E1 and D2A21, with and without 150 μg/ml pig mucin, were added prior to the addition of chronically infected cells or were mixed with the chronically infected cells prior to their addition to the monolayer of ME180 cells. Mucin was included because it is an abundant constituent of the normal vaginal secretions of a human being, thus any chemotherapeutic agent targeting HIV should be active in its presence if it is to have clinical value. […] The lymphocytes and peptide were co-cultured with the ME180 cells for 6 hours and then removed by washing the ME180 monolayer four times with PBS. The plate was then incubated at 37° C. for six days. Medium was removed and changed every 48 hours during the incubation stage. No further peptide was added after the initial dose. At six days post-co-cultivation, the supernatant was removed from the wells and evaluated for the quantity of p24 antigen by ELISA. The ELISA was performed according to the manufacturer's recommendations. The amount of virus production in wells treated with various concentrations of the peptides was evaluated with appropriate cell and virus controls. Data are reported as a percent of virus control at each drug concentration. Linear regression analysis was used to calculate the […] and IC95 concentrations of the transmission inhibitor. […] TI represents the toxicity index, which is the ratio of the TC50/IC50, and is an indication of the relative concentrations window that exists between efficacy and toxicity.

[2] = tested on: SK1 isolate of HIV-1; conditions: for p24 VALUES, single samples: samples 1-3; for IC50 (inhibition of cell-cell transmission): linear regression
Excerpt: as §1

[3] = 0.32 μg/ml, with 150 μg/ml pig mucin
[4] = 1 μg/ml, with 150 μg/ml pig mucin
[5] = 3.2 μg/ml, with 150 μg/ml pig mucin
[6] = 10 μg/ml, with 150 μg/ml pig mucin
[7] = 32 μg/ml, with 150 μg/ml pig mucin
[8] = 100 μg/ml, with 150 μg/ml pig mucin

Dextran
% CC (XTT, percent of cell control) ([1]; 0.32 μg/ml, no mucin): 90.1% | TOXICITY VALUES (XTT), MEAN ([1]; 0.32 μg/ml, no mucin): 0.458 O.D. @ 450/650 nm | TOXICITY VALUES (XTT), single samples ([1]; 0.32 μg/ml, no mucin): 0.462 O.D. @ 450/650 nm and 0.463 O.D. @ 450/650 nm and 0.488 O.D. @ 450/650 nm | % CC (XTT, percent of cell control) [1, 3]: 90.1% | TOXICITY VALUES (XTT), MEAN [1, 3]: 0.458 O.D. @ 450/650 nm | TOXICITY VALUES (XTT), single samples [1, 3]: 0.462 O.D. @ 450/650 nm and 0.463 O.D. @ 450/650 nm and 0.448 O.D. @ 450/650 nm | % CC (XTT, percent of cell control) ([1]; 1 μg/ml, no mucin): 88.1% | TOXICITY VALUES (XTT), MEAN ([1]; 1 μg/ml, no mucin): 0.447 O.D. @ 450/650 nm | TOXICITY VALUES (XTT), single samples ([1]; 1 μg/ml, no mucin): 0.425 O.D. @ 450/650 nm and 0.457 O.D. @ 450/650 nm and 0.450 O.D. @ 450/650 nm | % CC (XTT, percent of cell control) [1, 4]: 88.1% | TOXICITY VALUES (XTT), MEAN [1, 4]: 0.447 O.D. @ 450/650 nm | TOXICITY VALUES (XTT), single samples [1, 4]: 0.425 O.D. @ 450/650 nm and 0.467 O.D. @ 450/650 nm and 0.450 O.D. @ 450/650 nm | % CC (XTT, percent of cell control) ([1]; 3.2 μg/ml, no mucin): 91.1% | TOXICITY VALUES (XTT), MEAN ([1]; 3.2 μg/ml, no mucin): 0.463 O.D. @ 450/650 nm | TOXICITY VALUES (XTT), single samples ([1]; 3.2 μg/ml, no mucin): 0.477 O.D. @ 450/650 nm and 0.453 O.D. @ 450/650 nm and 0.459 O.D. @ 450/650 nm | % CC (XTT, percent of cell control) [1, 5]: 91.1% | TOXICITY VALUES (XTT), MEAN [1, 5]: 0.463 O.D. @ 450/650 nm | TOXICITY VALUES (XTT), single samples [1, 5]: 0.477 O.D. @ 450/650 nm and 0.453 O.D. @ 450/650 nm and 0.459 O.D. @ 450/650 nm | % CC (XTT, percent of cell control) ([1]; 10 μg/ml, no mucin): 92.0% | TOXICITY VALUES (XTT), MEAN ([1]; 10 μg/ml, no mucin): 0.467 O.D. @ 450/650 nm | TOXICITY VALUES (XTT), single samples ([1]; 10 μg/ml, no mucin): 0.468 O.D. @ 450/650 nm and 0.467 O.D. @ 450/650 nm | % CC (XTT, percent of cell control) [1, 6]: 92.0% | TOXICITY VALUES (XTT), MEAN [1, 6]: 0.467 O.D. @ 450/650 nm | TOXICITY VALUES (XTT), single samples [1, 6]: 0.468 O.D. @ 450/650 nm and 0.467 O.D. @ 450/650 nm | % CC (XTT, percent of cell control) ([1]; 32 μg/ml, no mucin): 91.7% | TOXICITY VALUES (XTT), MEAN ([1]; 32 μg/ml, no mucin): 0.466 O.D. @ 450/650 nm | TOXICITY VALUES (XTT), single samples ([1]; 32 μg/ml, no mucin): 0.457 O.D. @ 450/650 nm and 0.438 O.D. @ 450/650 nm and 0.493 O.D. @ 450/650 nm | % CC (XTT, percent of cell control) [1, 7]: 91.7% | TOXICITY VALUES (XTT), MEAN [1, 7]: 0.466 O.D. @ 450/650 nm | TOXICITY VALUES (XTT), single samples [1, 7]: 0.467 O.D. @ 450/650 nm and 0.438 O.D. @ 450/650 nm and 0.493 O.D. @ 450/650 nm | % CC (XTT, percent of cell control) ([1]; 100 μg/ml, no mucin): 97.8% | TOXICITY VALUES (XTT), MEAN ([1]; 100 μg/ml, no mucin): 0.497 O.D. @ 450/650 nm | TOXICITY VALUES (XTT), single samples ([1]; 100 μg/ml, no mucin): 0.481 O.D. @ 450/650 nm and 0.491 O.D. @ 450/650 nm and 0.519 O.D. @ 450/650 nm | % CC (XTT, percent of cell control) [1, 8]: 97.8% | TOXICITY VALUES (XTT), MEAN [1, 8]: 0.497 O.D. @ 450/650 nm | TOXICITY VALUES (XTT), single samples [1, 8]: 0.481 O.D. @ 450/650 nm and 0.491 O.D. @ 450/650 nm and 0.519 O.D. @ 450/650 nm | TC50 (concentration at which 50% of cells are eliminated) ([1]; no mucin): TC50 = 100 μg/ml | TC50 (concentration at which 50% of cells are eliminated) ([1]; with 150 μg/ml pig mucin): TC50 = 100 μg/ml | % VC (p24, percent of virus control) ([2]; 0.32 μg/ml, no mucin): 93.4% | p24 VALUES, MEAN ([2]; 0.32 μg/ml, no mucin): 51.0 µg/mL | p24 VALUES, single samples ([2]; 0.32 μg/ml, no mucin): 52.2 µg/mL and 52.5 µg/mL and 48.2 µg/mL | % VC (p24, percent of virus control) [2, 3]: 90.6% | p24 VALUES, MEAN [2, 3]: 56.2 µg/mL | p24 VALUES, single samples [2, 3]: 56.2 µg/mL and 53.5 µg/mL and 58.9 µg/mL | % VC (p24, percent of virus control) ([2]; 1 μg/ml, no mucin): 100.2% | p24 VALUES, MEAN ([2]; 1 μg/ml, no mucin): 54.7 µg/mL | p24 VALUES, single samples ([2]; 1 μg/ml, no mucin): 53.5 µg/mL and 57.0 µg/mL | % VC (p24, percent of virus control) [2, 4]: 86.72% | p24 VALUES, MEAN [2, 4]: 53.1 µg/mL | p24 VALUES, single samples [2, 4]: 51.0 µg/mL and 57.5 µg/mL and 50.9 µg/mL | % VC (p24, percent of virus control) ([2]; 3.2 μg/ml, no mucin): 91.4% | p24 VALUES, MEAN ([2]; 3.2 μg/ml, no mucin): 49.9 µg/mL | p24 VALUES, single samples ([2]; 3.2 μg/ml, no mucin): 50.3 µg/mL and 47.2 µg/mL and 52.2 µg/mL | % VC (p24, percent of virus control) [2, 5]: 88.2% | p24 VALUES, MEAN [2, 5]: 54.7 µg/mL | p24 VALUES, single samples [2, 5]: 52.1 µg/mL and 54.7 µg/mL and 57.3 µg/mL | % VC (p24, percent of virus control) ([2]; 10 μg/ml, no mucin): 84.1% | p24 VALUES, MEAN ([2]; 10 μg/ml, no mucin): 45.9 µg/mL | p24 VALUES, single samples ([2]; 10 μg/ml, no mucin): 45.3 µg/mL and 45.7 µg/mL and 46.6 µg/mL | % VC (p24, percent of virus control) [2, 6]: 92.6% | p24 VALUES, MEAN [2, 6]: 57.5 µg/mL | p24 VALUES, single samples [2, 6]: 53.2 µg/mL and 58.1 µg/mL and 61.1 µg/mL | % VC (p24, percent of virus control) ([2]; 32 μg/ml, no mucin): 96.0% | p24 VALUES, MEAN ([2]; 32 μg/ml, no mucin): 52.4 µg/mL | p24 VALUES, single samples ([2]; 32 μg/ml, no mucin): 51.9 µg/mL and 53.2 µg/mL and 52.0 µg/mL | % VC (p24, percent of virus control) [2, 7]: 102.7% | p24 VALUES, MEAN [2, 7]: 63.7 µg/mL | p24 VALUES, single samples [2, 7]: 65.5 µg/mL and 60.5 µg/mL and 65.1 µg/mL | % VC (p24, percent of virus control) ([2]; 100 μg/ml, no mucin): 94.5% | p24 VALUES, MEAN ([2]; 100 μg/ml, no mucin): 51.6 µg/mL | p24 VALUES, single samples ([2]; 100 μg/ml, no mucin): 52.6 µg/mL and 52.0 µg/mL and 50.1 µg/mL | % VC (p24, percent of virus control) [2, 8]: 104.2% | p24 VALUES, MEAN [2, 8]: 64.6 µg/mL | p24 VALUES, single samples [2, 8]: 63.7 µg/mL and 59.6 µg/mL and 70.6 µg/mL | IC50 (inhibition of cell-cell transmission) ([2]; no mucin): IC50 = 100 μg/ml | IC50 (inhibition of cell-cell transmission) ([2]; with 150 μg/ml pig mucin): IC50 = 100 μg/ml
